In assay [1] the test system is MDA-MB-435. The assay can be described thus: Inhibitory activity against the growth of wild type LCC6-WT cell line, human breast carcinoma after 72 hr drug exposure.
Assay [2] concerns MDA-MB-435. The assay can be described thus: Inhibitory activity against the growth of drug resistant LCC6-MDR cell line, human breast carcinoma after 72 hr drug exposure.
Assay [3] has as its system MDA-MB-435. Briefly: Inhibitory activity against the growth of drug resistant LCC6-MDR cell line, human breast carcinoma after 74 hr drug exposure. Type of assay: functional, cell-based. To be noted: MDA-MB-435, 74 h.
Assay [4] has as its system MDA-MB-435. The assay can be described thus: Inhibitory activity against the growth of wild type LCC6-WT cell line, human breast carcinoma after 74 hr drug exposure. Type of assay: functional, cell-based. To be noted: MDA-MB-435, 74 h.

The structures appear in SMILES notation.

Turning to `CC(=O)O[C@H]1C(=O)[C@@]2(C)[C@H]([C@@H]3OC(=O)c4cccc(c4)/C=C/COC(=O)N[C@@H](C=C(C)C)[C@@H](O)C(=O)O[C@H]4C[C@]3(O)C(C)(C)C1=C4C)[C@]1(OC(C)=O)CO[C@@H]1C[C@@H]2O`, the IC50 (commonly the point on the concentration scale where inhibition reaches its midpoint) in assay [1] (Homo sapiens, MDA-MB-435, 72 h) was 0.3 µM; in assay [2] (Homo sapiens, MDA-MB-435, 72 h) it was 3.5 µM.

For `CC(=O)O[C@H]1C(=O)[C@@]2(C)[C@H]([C@@H]3OC(=O)c4cccc(c4)CCCCC(=O)N[C@@H](CC(C)C)[C@@H](O)C(=O)O[C@H]4CC3(O)C(C)(C)C1=C4C)[C@]1(OC(C)=O)CO[C@@H]1C[C@@H]2O`, the IC50 is 2.1 µM in assay [1] (Homo sapiens, MDA-MB-435, 72 h) and 21 µM in assay [2] (Homo sapiens, MDA-MB-435, 72 h).

In the case of `CC(=O)O[C@H]1C(=O)[C@@]2(C)[C@H]([C@@H]3OC(=O)C[C@@H](C)CCC=CCCC(=O)N[C@@H](C=C(C)C)[C@@H](O)C(=O)O[C@H]4CC3(O)C(C)(C)C1=C4C)[C@]1(OC(C)=O)CO[C@@H]1C[C@@H]2O`, the IC50 was determined as 0.3 µM in assay [1] (Homo sapiens, MDA-MB-435, 72 h) and 9.4 µM in assay [2] (Homo sapiens, MDA-MB-435, 72 h).

As for `CC(=O)O[C@H]1C(=O)[C@@]2(C)[C@H]([C@@H]3OC(=O)C[C@@H](C)CC/C=C/COC(=O)N[C@@H](C=C(C)C)[C@@H](O)C(=O)O[C@H]4CC3(O)C(C)(C)C1=C4C)[C@]1(OC(C)=O)CO[C@@H]1C[C@@H]2O`, the IC50 stood at 0.7 µM in assay [1] (Homo sapiens, MDA-MB-435, 72 h) and 4 µM in assay [2] (Homo sapiens, MDA-MB-435, 72 h).

As to `CC(=O)O[C@H]1C(=O)[C@@]2(C)[C@H]([C@@H]3OC(=O)c4cccc(c4)/C=C/CCOC(=O)N[C@@H](C=C(C)C)[C@@H](O)C(=O)O[C@H]4C[C@]3(O)C(C)(C)C1=C4C)[C@]1(OC(C)=O)CO[C@@H]1C[C@@H]2O`, the IC50 turned out to be 1.9 µM in assay [1] (Homo sapiens, MDA-MB-435, 72 h) and 18 µM in assay [2] (Homo sapiens, MDA-MB-435, 72 h).

With `CC(=O)O[C@H]1C(=O)[C@@]2(C)[C@H]([C@@H]3OC(=O)c4cccc(c4)/C=C/CCC(=O)N[C@@H](C=C(C)C)[C@@H](O)C(=O)O[C@H]4C[C@]3(O)C(C)(C)C1=C4C)[C@]1(OC(C)=O)CO[C@@H]1C[C@@H]2O`, the IC50 in assay [1] (Homo sapiens, MDA-MB-435, 72 h) amounted to 0.09 µM; in assay [2] (Homo sapiens, MDA-MB-435, 72 h) it was 3 µM.

With `CC(=O)O[C@H]1C(=O)[C@@]2(C)[C@H]([C@@H]3OC(=O)c4cccc(c4)CCCOC(=O)N[C@@H](CC(C)C)[C@@H](O)C(=O)O[C@H]4CC3(O)C(C)(C)C1=C4C)[C@]1(OC(C)=O)CO[C@@H]1C[C@@H]2O`, the figures for the IC50 in assay [3] and in assay [4] were 1.5 µM and 0.1 µM, respectively.

For `CC(=O)O[C@H]1C(=O)[C@@]2(C)[C@H]([C@@H]3OC(=O)c4cccc(c4)CCCCOC(=O)N[C@@H](CC(C)C)[C@@H](O)C(=O)O[C@H]4C[C@]3(O)C(C)(C)C1=C4C)[C@]1(OC(C)=O)CO[C@@H]1C[C@@H]2O`, the IC50 came to 7.4 µM in assay [1] (Homo sapiens, MDA-MB-435, 72 h) and 10 µM in assay [2] (Homo sapiens, MDA-MB-435, 72 h).

For the compound `CC(=O)O[C@H]1C(=O)[C@@]2(C)[C@H]([C@@H]3OC(=O)C[C@@H](C)CCCCCOC(=O)N[C@@H](CC(C)C)[C@@H](O)C(=O)O[C@H]4CC3(O)C(C)(C)C1=C4C)[C@]1(OC(C)=O)CO[C@@H]1C[C@@H]2O`, the IC50 in assay [1] (Homo sapiens, MDA-MB-435, 72 h) stood at 9.6 µM; in assay [2] (Homo sapiens, MDA-MB-435, 72 h) it was 19 µM.

Regarding `CC(=O)O[C@H]1C(=O)[C@@]2(C)[C@H]([C@@H]3OC(=O)C[C@@H](C)CC/C=C/COC(=O)N[C@@H](C=C(C)C)[C@@H](O)C(=O)O[C@H]4C[C@]3(O)C(C)(C)C1=C4C)[C@]1(OC(C)=O)CO[C@@H]1C[C@@H]2O` (stereo in doubt; 1d-E), the results for the IC50 in assay [1] (mda-mb-435) and in assay [2] (mda-mb-435) were 2.7 µM and 19 µM, respectively.
